Experimental data reported in patent publication US12156885B2, “Methods and compositions for treating heart conditions” (priority 2020, dated 2024).

Key:
[1] = Treatment of PVCs in a patient with lithium carbonate in combination with metoprolol (cardiac event monitor / EKG); assay type: in vivo, human; conditions: lithium carbonate 300 mg per day (150 mg BID) in combination with metoprolol 150 mg per day
Text: Trial 1 was started on Aug. 23, 2019 and stopped on Jan. 1, 2020; Trial 2 was started on Jan. 12, 2020 and stopped on Apr. 21, 2020; and Trial 3 was started on May 8, 2020 and was ongoing at the time the instant application was filed.
The first trial was 109 days. The second trial was 43 days.

[2] = patient; lithium carbonate 300 mg per day (Li2CO3 150 mg BID)

O=C([O-])[O-].[Li+].[Li+] [lithium carbonate]
PVCs reduced, each of three trials ([1]; each trial, for the duration of treatment with lithium): at least 90% | PVCs reduced (reduction of PVCs) ([1]; within a few days, for the duration of lithium treatment): about 90% | lithium serum level [2]: about 0.2
